# ChEMBL document CHEMBL1201862, “PubChem BioAssay data set” (2004)
# Calls of active or inactive are those of the source. Unless noted, no cut-off for these calls is given here.
# Key:
# [1] = target: T1, Tyrosine-protein phosphatase non-receptor type 22 (Homo sapiens, UniProt Q9Y2R2); experiment: SAR LYP1 Fluorescent Assay using pCAP substrate for In Vitro dose response studies - Set 2. [Related pubchem assays (depositor defined):AID1779, AID1784, AID2135, AID449727]; assay type: functional
# T1 sequence (Q9Y2R2 whole entry): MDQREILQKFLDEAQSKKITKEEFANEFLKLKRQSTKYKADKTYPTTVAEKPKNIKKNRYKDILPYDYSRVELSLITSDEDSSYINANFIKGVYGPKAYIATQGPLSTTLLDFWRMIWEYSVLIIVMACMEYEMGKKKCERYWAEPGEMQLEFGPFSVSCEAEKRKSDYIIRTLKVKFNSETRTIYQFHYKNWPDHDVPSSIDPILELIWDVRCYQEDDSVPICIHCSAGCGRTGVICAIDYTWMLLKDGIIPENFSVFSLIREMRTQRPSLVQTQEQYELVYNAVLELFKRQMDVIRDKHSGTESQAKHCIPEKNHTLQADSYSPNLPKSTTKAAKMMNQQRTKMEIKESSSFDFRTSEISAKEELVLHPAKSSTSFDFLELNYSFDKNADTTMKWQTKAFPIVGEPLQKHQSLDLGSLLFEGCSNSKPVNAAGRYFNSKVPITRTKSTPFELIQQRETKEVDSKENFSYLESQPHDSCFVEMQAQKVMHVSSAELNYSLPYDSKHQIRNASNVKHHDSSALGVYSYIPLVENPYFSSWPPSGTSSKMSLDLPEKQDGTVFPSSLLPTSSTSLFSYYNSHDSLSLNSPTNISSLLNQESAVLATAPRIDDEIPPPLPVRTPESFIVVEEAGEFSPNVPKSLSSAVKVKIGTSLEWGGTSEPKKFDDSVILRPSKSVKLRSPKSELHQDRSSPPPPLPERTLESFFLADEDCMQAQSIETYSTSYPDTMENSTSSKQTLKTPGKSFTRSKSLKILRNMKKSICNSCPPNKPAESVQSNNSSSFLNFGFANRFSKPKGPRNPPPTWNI
# [2] = target: Tyrosine-protein phosphatase non-receptor type 12 (Homo sapiens, UniProt Q05209); experiment: SAR Selectivity Analysis of small molecule inhibitors of PEST using pCAP in a fluorescence assay. [Related pubchem assays (depositor defined):AID1779, AID1784, AID2135]; assay type: functional
# Sequence of Tyrosine-protein phosphatase non-receptor type 12 (Q05209 whole entry): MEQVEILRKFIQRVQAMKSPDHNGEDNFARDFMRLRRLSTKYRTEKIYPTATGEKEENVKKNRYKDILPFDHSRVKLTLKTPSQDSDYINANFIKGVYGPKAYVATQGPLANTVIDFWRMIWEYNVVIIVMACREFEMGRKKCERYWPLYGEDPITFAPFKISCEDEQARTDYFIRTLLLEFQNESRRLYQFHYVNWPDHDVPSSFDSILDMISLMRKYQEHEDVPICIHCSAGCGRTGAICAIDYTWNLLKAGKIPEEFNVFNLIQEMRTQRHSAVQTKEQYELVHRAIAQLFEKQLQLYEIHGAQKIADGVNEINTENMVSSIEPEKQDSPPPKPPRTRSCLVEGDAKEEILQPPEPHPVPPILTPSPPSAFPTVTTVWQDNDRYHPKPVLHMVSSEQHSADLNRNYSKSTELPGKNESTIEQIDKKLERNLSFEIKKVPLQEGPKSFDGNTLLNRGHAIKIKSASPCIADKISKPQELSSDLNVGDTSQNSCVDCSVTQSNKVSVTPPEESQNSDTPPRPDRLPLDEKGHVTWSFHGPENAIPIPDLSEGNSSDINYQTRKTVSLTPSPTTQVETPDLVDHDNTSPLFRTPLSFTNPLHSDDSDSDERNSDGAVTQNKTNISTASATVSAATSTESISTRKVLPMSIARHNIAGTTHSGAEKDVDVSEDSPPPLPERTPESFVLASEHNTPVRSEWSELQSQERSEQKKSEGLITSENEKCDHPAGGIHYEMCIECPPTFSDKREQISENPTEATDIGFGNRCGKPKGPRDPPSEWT
# [3] = target: T1, Tyrosine-protein phosphatase non-receptor type 22; experiment: SAR LYP1 Fluorescent Assay using OMFP substrate for In Vitro dose response studies - Set 3. [Related pubchem assays (depositor defined):AID1779, AID1784, AID2140, AID2686]; assay type: functional
# [4] = target: T2, Tyrosine-protein phosphatase non-receptor type 7 (Homo sapiens, UniProt P35236); experiment: HePTP (PTPN7) phosphatase inhibitor potency, SAR follow-up, biochemical, set 2 (AID 449736); assay type: functional
# T2 sequence (P35236 whole entry): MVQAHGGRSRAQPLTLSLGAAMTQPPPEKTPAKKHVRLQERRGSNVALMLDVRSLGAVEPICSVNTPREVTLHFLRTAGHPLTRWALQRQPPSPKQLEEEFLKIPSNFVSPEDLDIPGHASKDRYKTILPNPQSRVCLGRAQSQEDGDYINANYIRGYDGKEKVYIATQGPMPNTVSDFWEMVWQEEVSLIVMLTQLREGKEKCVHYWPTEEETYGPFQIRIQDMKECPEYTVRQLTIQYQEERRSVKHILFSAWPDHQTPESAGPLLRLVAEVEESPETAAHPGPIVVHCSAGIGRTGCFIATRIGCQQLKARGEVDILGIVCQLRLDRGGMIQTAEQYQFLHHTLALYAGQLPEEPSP
# [5] = target: T1, Tyrosine-protein phosphatase non-receptor type 22; experiment: LYP (PTPN22) phosphatase inhibitor potency, SAR follow-up, biochemical, pCAP fluorogenic substrate, fluorescence, set 3 (AID 449727); assay type: functional
# [6] = target: T1, Tyrosine-protein phosphatase non-receptor type 22; experiment: PubChem AID 2135
# [7] = target: T1, Tyrosine-protein phosphatase non-receptor type 22; experiment: PubChem AID 2140
# [8] = target: T1, Tyrosine-protein phosphatase non-receptor type 22; experiment: SAR LYP1 Fluorescent Assay using OMFP substrate for In Vitro dose response studies - Set 2. [Related pubchem assays (depositor defined):AID1779, AID1784, AID2140, AID449726, AID488869]; assay type: functional
# [9] = target: T3, E3 ubiquitin-protein ligase XIAP (Homo sapiens, UniProt P98170); experiment: SAR analysis of Antagonists of XIAP-Bir3 domain of IAP-family anti-apoptotic proteins. [Related pubchem assays (depositor defined):AID1018, AID1449, AID1513, AID1514, AID1638]
# T3 sequence (P98170 whole entry, the tested form may be a part): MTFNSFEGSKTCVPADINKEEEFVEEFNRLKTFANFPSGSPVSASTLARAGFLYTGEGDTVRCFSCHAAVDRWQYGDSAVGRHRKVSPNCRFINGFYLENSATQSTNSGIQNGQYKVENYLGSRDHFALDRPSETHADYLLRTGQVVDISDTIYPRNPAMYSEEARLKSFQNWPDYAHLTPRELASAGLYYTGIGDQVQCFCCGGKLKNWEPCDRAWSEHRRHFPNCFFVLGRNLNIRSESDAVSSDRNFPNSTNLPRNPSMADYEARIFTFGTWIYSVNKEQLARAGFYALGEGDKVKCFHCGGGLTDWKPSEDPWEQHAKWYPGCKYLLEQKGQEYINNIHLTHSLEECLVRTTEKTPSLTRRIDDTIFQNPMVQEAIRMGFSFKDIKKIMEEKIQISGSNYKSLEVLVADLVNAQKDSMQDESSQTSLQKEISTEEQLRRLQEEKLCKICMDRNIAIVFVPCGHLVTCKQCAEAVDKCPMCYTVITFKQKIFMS
# [10] = target: T3, E3 ubiquitin-protein ligase XIAP; experiment: SAR analysis of Antagonists of IAP-family anti-apoptotic proteins. [Related pubchem assays (depositor defined):AID1018, AID1449, AID1513, AID1514, AID1638]
# [11] = target: Sphingosine 1-phosphate receptor 5 (Homo sapiens, UniProt Q9H228); experiment: (§1) Late-stage fluorescence-based dose-response cell-based assay to identify agonists of the Sphingosine 1-Phosphate Receptor 4 (S1P4): Sphingosine 1-Phosphate Receptor 5 (S1P5) counterscreen assay. [Related pubchem assays (depositor defined):AID1509, AID1523, AID1563, AID1686, AID1701, AID1801, AID463107, AID463225, AID504400]; assay type: functional
# Sequence of Sphingosine 1-phosphate receptor 5 (Q9H228 whole entry): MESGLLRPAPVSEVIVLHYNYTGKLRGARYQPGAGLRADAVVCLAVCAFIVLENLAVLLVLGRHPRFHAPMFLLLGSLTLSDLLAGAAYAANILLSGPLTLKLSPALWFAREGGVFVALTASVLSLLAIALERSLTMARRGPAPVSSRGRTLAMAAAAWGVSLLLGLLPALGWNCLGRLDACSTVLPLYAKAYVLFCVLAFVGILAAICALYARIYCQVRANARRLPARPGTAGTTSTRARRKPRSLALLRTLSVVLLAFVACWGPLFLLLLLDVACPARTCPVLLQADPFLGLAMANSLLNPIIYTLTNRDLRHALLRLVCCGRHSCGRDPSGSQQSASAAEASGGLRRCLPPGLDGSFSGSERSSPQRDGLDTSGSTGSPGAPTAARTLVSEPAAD
# [12] = target: Sphingosine 1-phosphate receptor 1 (Homo sapiens, UniProt P21453); experiment: as §1, with “1 (S1P1)” for “5 (S1P5)”; assay type: functional
# Sequence of Sphingosine 1-phosphate receptor 1 (P21453 whole entry): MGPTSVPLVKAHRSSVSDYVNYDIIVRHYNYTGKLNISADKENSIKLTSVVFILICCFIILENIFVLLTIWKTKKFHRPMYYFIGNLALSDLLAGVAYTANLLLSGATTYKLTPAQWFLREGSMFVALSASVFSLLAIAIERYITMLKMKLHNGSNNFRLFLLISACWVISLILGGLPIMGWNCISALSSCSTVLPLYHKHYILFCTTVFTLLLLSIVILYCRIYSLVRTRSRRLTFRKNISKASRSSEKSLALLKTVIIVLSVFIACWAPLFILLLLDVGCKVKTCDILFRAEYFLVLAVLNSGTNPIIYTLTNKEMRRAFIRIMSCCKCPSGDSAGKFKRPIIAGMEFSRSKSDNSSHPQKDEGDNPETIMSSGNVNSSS
# [13] = target: Sphingosine 1-phosphate receptor 2 (Homo sapiens, UniProt O95136); experiment: as §1, with “2 (S1P2)” for “5 (S1P5)”; assay type: functional
# Sequence of Sphingosine 1-phosphate receptor 2 (O95136 whole entry): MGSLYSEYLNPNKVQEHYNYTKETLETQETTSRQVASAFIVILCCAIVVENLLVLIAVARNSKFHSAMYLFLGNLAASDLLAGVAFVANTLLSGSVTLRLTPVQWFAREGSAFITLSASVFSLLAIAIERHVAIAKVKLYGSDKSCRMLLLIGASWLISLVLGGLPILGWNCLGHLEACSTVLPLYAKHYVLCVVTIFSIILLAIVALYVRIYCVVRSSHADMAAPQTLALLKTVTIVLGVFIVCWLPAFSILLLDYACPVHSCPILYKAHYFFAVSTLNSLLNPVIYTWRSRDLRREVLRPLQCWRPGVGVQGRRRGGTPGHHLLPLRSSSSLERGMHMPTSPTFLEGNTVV
# [14] = target: Sphingosine 1-phosphate receptor 3 (Homo sapiens, UniProt Q99500); experiment: as §1, with “3 (S1P3)” for “5 (S1P5)”; assay type: functional
# Sequence of Sphingosine 1-phosphate receptor 3 (Q99500 whole entry): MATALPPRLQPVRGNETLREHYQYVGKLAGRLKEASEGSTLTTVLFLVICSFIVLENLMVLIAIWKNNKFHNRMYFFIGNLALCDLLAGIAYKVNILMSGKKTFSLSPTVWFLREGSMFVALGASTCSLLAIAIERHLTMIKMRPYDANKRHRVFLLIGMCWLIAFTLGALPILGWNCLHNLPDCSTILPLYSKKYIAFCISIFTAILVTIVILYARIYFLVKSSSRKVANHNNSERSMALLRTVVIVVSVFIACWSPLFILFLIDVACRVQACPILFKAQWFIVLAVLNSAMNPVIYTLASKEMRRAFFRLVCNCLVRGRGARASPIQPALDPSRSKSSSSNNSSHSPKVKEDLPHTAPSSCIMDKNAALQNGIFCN
# [15] = target: T4, Delta-type opioid receptor (Homo sapiens, UniProt P41143); experiment: HTS Image-Based Screen for Antagonists of the DOR Receptor. [Related pubchem assays (depositor defined):AID1777, AID1785, AID1786, AID2133]; assay type: functional
# T4 sequence (P41143 whole entry): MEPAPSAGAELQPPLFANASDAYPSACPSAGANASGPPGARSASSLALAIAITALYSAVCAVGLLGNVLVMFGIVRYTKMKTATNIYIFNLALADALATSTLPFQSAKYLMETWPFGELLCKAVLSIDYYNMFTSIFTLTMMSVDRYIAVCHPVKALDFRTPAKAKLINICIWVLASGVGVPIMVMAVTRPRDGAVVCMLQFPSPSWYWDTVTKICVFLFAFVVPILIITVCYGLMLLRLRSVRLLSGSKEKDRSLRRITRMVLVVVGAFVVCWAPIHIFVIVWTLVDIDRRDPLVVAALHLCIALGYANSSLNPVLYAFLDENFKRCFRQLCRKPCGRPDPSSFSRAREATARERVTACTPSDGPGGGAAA
# [16] = target: Mu-type opioid receptor (Homo sapiens, UniProt P35372); experiment: HTS Image-Based Screen for Agonists of the MOR Receptor. [Related pubchem assays (depositor defined):AID1777, AID1785, AID1786, AID2133]; assay type: functional;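 note: imaging of beta-arrestin GFP recruitment into spots after receptor activation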
# Sequence of Mu-type opioid receptor (P35372 whole entry): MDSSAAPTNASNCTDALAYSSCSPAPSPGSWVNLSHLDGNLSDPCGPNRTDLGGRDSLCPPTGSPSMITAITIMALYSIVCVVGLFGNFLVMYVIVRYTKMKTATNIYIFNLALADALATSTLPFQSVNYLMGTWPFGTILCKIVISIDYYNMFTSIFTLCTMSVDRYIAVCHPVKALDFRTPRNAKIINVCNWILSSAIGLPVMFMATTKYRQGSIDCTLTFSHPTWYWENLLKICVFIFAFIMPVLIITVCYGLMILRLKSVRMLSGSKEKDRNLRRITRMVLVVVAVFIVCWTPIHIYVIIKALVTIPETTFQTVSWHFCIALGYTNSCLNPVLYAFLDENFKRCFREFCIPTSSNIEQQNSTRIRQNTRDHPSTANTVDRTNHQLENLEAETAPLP
# [17] = target: T4, Delta-type opioid receptor; experiment: HTS Image-Based Screen for Agonists of the DOR Receptor. [Related pubchem assays (depositor defined):AID1777, AID1786, AID2133]; assay type: functional
# [18] = target: T5, Kappa-type opioid receptor (Homo sapiens, UniProt P41145); assay type: functional
# T5 sequence (P41145 whole entry): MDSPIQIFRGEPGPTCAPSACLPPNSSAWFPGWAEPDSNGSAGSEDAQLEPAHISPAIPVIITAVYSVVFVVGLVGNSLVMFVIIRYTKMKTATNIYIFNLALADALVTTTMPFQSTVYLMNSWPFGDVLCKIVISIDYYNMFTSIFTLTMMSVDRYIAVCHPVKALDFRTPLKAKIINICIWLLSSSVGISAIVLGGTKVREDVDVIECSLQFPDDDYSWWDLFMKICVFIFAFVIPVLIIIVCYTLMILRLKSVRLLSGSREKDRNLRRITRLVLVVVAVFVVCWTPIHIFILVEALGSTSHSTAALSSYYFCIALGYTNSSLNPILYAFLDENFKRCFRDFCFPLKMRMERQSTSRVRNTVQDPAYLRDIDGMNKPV
# [19] = target: T5, Kappa-type opioid receptor; assay type: functional; remark: listed apart in the source
# [20] = target: T6, Short transient receptor potential channel 4 (Mus musculus, UniProt Q9QUQ5); experiment: mouse TRPC4 channel inhibitors, dose response, cell-based, HEK293 TRPC4/mu-opioid, Fluo-4 calcium (AID 434942); assay type: functional;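 note: potency of inhibitors blocking the TRPC4 calcium response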
# T6 sequence (Q9QUQ5 whole entry): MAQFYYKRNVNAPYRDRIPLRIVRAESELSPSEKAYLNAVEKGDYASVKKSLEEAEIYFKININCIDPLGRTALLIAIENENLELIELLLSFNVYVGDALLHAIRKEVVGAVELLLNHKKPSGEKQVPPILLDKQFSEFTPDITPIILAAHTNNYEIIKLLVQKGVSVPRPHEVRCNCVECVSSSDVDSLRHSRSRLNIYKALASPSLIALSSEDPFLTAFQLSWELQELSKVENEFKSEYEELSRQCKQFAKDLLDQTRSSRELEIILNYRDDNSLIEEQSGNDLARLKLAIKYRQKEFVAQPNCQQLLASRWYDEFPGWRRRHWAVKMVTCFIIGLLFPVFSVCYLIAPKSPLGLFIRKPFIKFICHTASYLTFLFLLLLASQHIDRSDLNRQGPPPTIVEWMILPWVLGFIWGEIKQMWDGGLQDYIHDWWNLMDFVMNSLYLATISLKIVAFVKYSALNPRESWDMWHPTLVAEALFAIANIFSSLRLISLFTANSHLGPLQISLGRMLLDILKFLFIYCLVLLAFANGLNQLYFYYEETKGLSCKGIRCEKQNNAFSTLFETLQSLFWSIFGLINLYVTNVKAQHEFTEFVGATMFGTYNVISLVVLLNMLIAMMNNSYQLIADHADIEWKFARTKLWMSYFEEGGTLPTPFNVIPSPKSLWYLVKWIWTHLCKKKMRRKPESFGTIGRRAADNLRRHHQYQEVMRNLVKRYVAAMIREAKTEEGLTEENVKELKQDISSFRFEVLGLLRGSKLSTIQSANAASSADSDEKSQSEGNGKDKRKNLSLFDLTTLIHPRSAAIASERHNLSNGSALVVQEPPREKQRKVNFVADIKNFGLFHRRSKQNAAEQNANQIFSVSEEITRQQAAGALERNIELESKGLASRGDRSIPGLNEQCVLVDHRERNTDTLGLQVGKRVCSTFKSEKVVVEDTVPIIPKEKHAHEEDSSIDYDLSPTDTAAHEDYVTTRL
# [21] = target: T5, Kappa-type opioid receptor; experiment: SAR analysis of small molecule antagonists of the kappa opioid receptor via a luminescent beta-arrestin assay - Set 4. [Related pubchem assays (depositor defined):AID1777, AID1778, AID1785, AID1786, AID1966, AID2133, AID2136, AID2285]; assay type: functional
# [22] = target: T5, Kappa-type opioid receptor; experiment: SAR analysis of small molecule antagonists of the kappa opioid receptor via a luminescent beta-arrestin assay - Set 5. [Related pubchem assays (depositor defined):AID1778, AID1785]; assay type: functional
smiles,measurement,setting,value
N#C/C(=C/c1ccc(OCc2cccc(C(=O)O)c2)c(Cl)c1)c1cccc(F)c1,IC50,[1],> 100 µM (inactive)
same,IC50,[2],17 µM (active)
same,IC50,[3],> 100 µM (inactive)
same,IC50,[4],4.78 µM (active)
same,IC50,[5],> 100 µM (inactive)
same,IC50,[6],> 100 µM (inactive)
same,IC50,[7],> 100 µM (inactive)
same,IC50,[8],99.1 µM (active)
CN[C@@H](C)C(=O)NC1CCCN([C@@H](C)C(=O)Nc2ccc3ccccc3c2)C1=O (some centres not stated),IC50,[9],> 100 µM (inactive)
same,IC50,[10],> 100 µM (inactive)
FCc1ccc(OCCOc2ccc(Cl)cc2Cl)c(Cl)n1,EC50,[11],> 50 µM (inactive)
same,EC50,[12],> 50 µM (inactive)
same,EC50,[13],> 50 µM (inactive)
same,EC50,[14],> 50 µM (inactive)
Cc1cccc(-n2ccnc2CN2CCC(CO)(Cc3ccccc3)CC2)c1,IC50,[15],> 32 µM (inactive)
same,EC50,[16],> 32 µM (inactive)
same,EC50,[17],> 32 µM (inactive)
same,EC50,[18],4.15 µM
same,EC50,[19],5.69 µM
same,EC50,[20],1.68 µM (active)
Cc1ccc(N2CCN(CCCNC(=O)Cn3c(=O)c4cccn4c4cc(Br)cnc43)CC2)cc1,IC50,[21],9.68 µM (active)
same,IC50,[22],3.86 µM (active)
